Where two headings read alike, the source gives them in different places.

For one series, the system named is tumor. The conditions noted are these: at ≥25 mg/kg Body Weight, mouse model; cited from earlier work.
For the next series, the target named is Cdc42 (Homo sapiens, UniProt P60953). The conditions noted are these: cited from earlier work.
The next series concerns PAK1. The conditions noted are these: at 2 μM; cited from earlier work.
In a further series the target is Rac (Homo sapiens, UniProt P63000). As to conditions: cited from earlier work.
In series [1] the test system is MDA-MB-231 breast cancer cell lines. In words: Cytotoxicity (IC50) of EHop-016 derivatives modified in building block C. The series is classed as cell-based. The conditions noted are these: Homo sapiens, concentration at which 50% of the cell growth is inhibited. On the procedure: (§1) An additional example of a compounds with modification in building block C was synthesized via a different procedure as represented in Scheme 2B (see FIG. 11B). The compounds that were synthesized were tested for their biological activity by determination of their cytotoxicity in MDA-MB-231 breast cancer cell lines as shown in Table 5. The cytotoxicity's are expressed as IC50, which indicates the concentration at which 50% of the cell growth is inhibited. Furthermore, the inhibition of cell migration was tested at a concentration of 0.2×IC50, or, when the IC50 was >50 μM at a concentration of 10 μM. For comparison, Table 5 also includes the Lipinski and drug-likeness parameters as calculated via the MolSoft platform.

A further series relates to MDA-MB-231 cancer cells. In words: Sulforhodamine B (SRB) growth inhibition assay. The series is classed as cell-based, human. As to conditions: Homo sapiens, MDA-MB-231; SRB assay, 24 h treatment, mean of triplicate, SD <10%. On the procedure:
(§2) Various compounds were tested to evaluate the dose response curve for effect on MCF-7 cancer cells and MDA-MB-231 cancer cells. MCF-7 and MDA-MB-231 cells were cultured in 10% Minimum Essential Medium Eagle (MEME) supplemented with Earle's Balanced Salt Solution (EBSS), Non-essential Amino acids (NEAA), Sodium pyruvate, Pen/Strep, L-glutamine and Fetal Bovine Serum (FBS) at 37° C. in 5% CO2.
(§3) Sulforhodamine B (SRB) Assay: A stock solution of compounds was prepared at 50 mM in 100% DMSO. For cells preparation, a flask of 75 cm^2 or 25 cm^2 were used for 2.6×10^5 cells or 1.44×10^5 cells respectively with an 80-90% of confluence. Cells were washed with PBS and trypsinized. The concentration of cells was determined using a 1:2 dilutions with Trypan Blue and a hemocytometer. After cell count, the concentration was adjusted to have a 1.9×10^4 cells/well. Approximately […] of cells suspension, compounds, control positive and control negative were added in triplicates to a 96 well plate. Positive controls used were ellipticine, doxorubicin, and/or vincristine, and the negative control was DMSO 0.1%. All compounds at 50, 25, 12.5, 6.3, and 1.6 μM were incubated with cells at 37° C. for 24 hrs. For fixation, cold TCA 50% was used and incubated at 4° C. for 1 hr. Wells were washed and dried prior to tincture with 100 μL of SRB 0.4%. To remove excess of SRB, acetic acid was used. For analysis, TRIS-BASE Solution (pH=10.5) was used and shacked prior to reading using an ELISA reader at 510 nm and the software SoftMax Pro 4.8.
(§4) For each compound, 50% growth inhibition (GI50) was calculated from Sigmoidal dose-response curves (variable-slope) that were generated with data obtained from experiments carried out in triplicates (GI50 values were generated with GraphPad Prism V. 6.02, GraphPad Software, Inc.). The results are presented in FIGS. 4A-4B (MCF-7 cancer cells) and FIGS. 5A-5B (MDA-MB-231 cancer cells).
Background: Sulforhodamine B stains cellular protein and so reports cell mass.

For a further series, the target named is Rac1-Vav2 interaction (Homo sapiens, UniProt P63000). The conditions noted are these: cited from earlier work.
In series [2] the test system is MDA-MB-231 breast cancer cells. Description: Wound healing assay (scratch method), cell migration. As to conditions: for inhibition at 10 µM: read-out: anti-migratory activity (inhibition of migration). The series is classed as cell-based, human. The method, then: The experimental data of anti-migratory activities for compounds 3a-d and 4a-f were obtained using MDA-MB-231 breast cancer cells. For the migration assay, a wound-healing assay (scratch-wound assay) was utilized in the presence of vehicle (0.02% DMSO) or compounds at […].
Prior to assays, cells were grown until 80-90% confluence was observed. A 75 cm2 flask was used for 2.6×10^5 cells/mL in 10 mL and for a 25 cm2 flask 1.44×10^5 cells/mL in 5 mL. The cells were washed with PBS to remove all traces of FBS. 2 mL was added for a 25 cm2 flasks or 4 mL for a 75 cm2 flasks trypsin, and incubated 5-10 min at 37° C. At the end of the incubation time, cells were re-suspended and counted with hemocytometer using 1:2 dilutions with Trypan blue. Subsequently, cell viability was calculated. In a 12 multiwell plate, the plastic pattern was used to draw a fine space with a fine marker on the bottom of the plate. Cells were seeded at 1.5-2.2×10^5 cells/mL in 1 mL and incubated for 24 h. Cells were then rinsed with PBS and incubated in starving media (0.5% FBS) overnight. All controls and drugs were tested in triplicate. The negative control for each drug was prepared according to the drug's DMSO concentration.
Drugs were diluted and the final concentration at each well […]. The wound was made using a sterile pipette tip of […]. Cells were then rinsed very gently with media without FBS and media with negative controls was added. After a 24 h incubation, the gap distance was evaluated using the software Lumera Infinity Analyze 6.4.0. Pictures were taken at 0, 8, 12 and 24 h using a 10× objective. The percentage of migration was calculated using the following formula: 100−[(X0/X0)]*100 for time 0 h measurements 100−[(X24/X0)]*100 for time 24 h measurements
The experimental data of anti-migratory activities for compounds 3a-d and 4a-f were obtained using MDA-MB-231 breast cancer cells, and results are summarized in Table 1. For the migration assay, we used a wound-healing assay (scratch-wound assay)^22 in the presence of vehicle (0.02% DMSO) or compounds at 10 μM (FIG. 6). […] However, compounds 3a, 3c, and 4a-f inhibited migration in the range of 1-9%.
as §1
Migration assays were performed via the Scratch Method as described previously.

The conditions of series [3]: mouse model; cited from earlier work.
The next series deals with MCF-7 cancer cells. In words: Sulforhodamine B (SRB) growth inhibition assay. The series is classed as cell-based. As to conditions: Homo sapiens, MCF7, 24 h treatment, mean of triplicate, SD <10%. On the procedure:
as §2, §3, §4

Sequence of Cdc42 (P60953 whole entry, species assumed): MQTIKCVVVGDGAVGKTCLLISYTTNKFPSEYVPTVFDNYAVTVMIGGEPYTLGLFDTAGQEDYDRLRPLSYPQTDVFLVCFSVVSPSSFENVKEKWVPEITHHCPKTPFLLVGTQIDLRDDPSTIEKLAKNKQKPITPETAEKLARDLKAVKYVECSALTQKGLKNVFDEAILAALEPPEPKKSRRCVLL

What is called IC50 is the midpoint of a concentration-inhibition curve. Broadly, the GI50 is the concentration giving 50% growth inhibition. Low values mean greater sensitivity of the cells, high ones lower sensitivity of the cells. Consider `CCn1c2ccccc2c2cc(Nc3ccnc(NCCCN4CCOCC4)n3)ccc21` (racemic) [EHop-016], for which the “tumor growth, metastasis and angiogenesis in words” value in the series on tumor was “significantly reduced tumor growth, metastasis, and angiogenesis”. For the same compound, at Cdc42, the “concentrations that inhibit Cdc42 activity” value is no less than 10 µM. Besides, in the series on PAK1, the inhibition of PAK1 is 60%. The “activity relative to previously available Rac inhibitors” value at Rac is listed as 10-100 times. In addition, the half-maximal inhibitory concentration (IC50) on Rac (metastatic breast cancer cells) was 1 µM; in series [1] it was 15.7 µM; at Rac1-Vav2 interaction, 1 µM. Also, the GI50 in the series on MDA-MB-231 cancer cells was 15 µM; with MCF-7 cancer cells it was 14 µM. In [2] (Homo sapiens, MDA-MB-231, 24 h, at 1 μM), this compound returned an activity at 1 µM of 95.4%. The compound also registered an activity at 5 µM in series [2] (Homo sapiens, MDA-MB-231, 24 h, at 5 μM) of 63.4%. The inhibition at 1 µM in series [2] (Homo sapiens, MDA-MB-231, read-out: inhibition of migration, at 1.0 μM, scratch method) turned out to be 5%. The inhibition at 5 µM in [2] (Homo sapiens, MDA-MB-231, read-out: inhibition of migration, at 5.0 μM, scratch method) was 37%. Also, the inhibition at 10 µM in [2] (Homo sapiens, MDA-MB-231) is 33%; in [2] (Homo sapiens, at 10 μM, 24 h, MDA-MB-231) it was 33%. Also, the activity at 10 µM in series [2] (Homo sapiens, percent relative migration at 10 μM after 24 h, relative to control, MDA-MB-231) was 67 ± 7.55%. In addition, the anti-migratory activity in series [2] (at 5 pM as printed, MDA-MB-231) is recorded as 17%; in series [2] (at 5 μM, MDA-MB-231) it was 17%. For the same compound, the clearance in words result in series [3] was “cleared rapidly from the circulation”.

The values above are taken from patent US11446299B2, “Carbazole EHop-016 derivatives as anticancer and anti-migratory agents” (UNIVERSITY OF PUERTO RICO, priority 2017, dated 2022).
